Laboratory results: patent US9277748B2, “Agonist/antagonist compositions and methods of use” (The United States of America, as represented by the …, priority 2010, dated 2016)
“Also recorded” adds a separate entry of the source. Where two headings read alike, the source gives them in different places.

Assays:
[1] = biological target: CHO cells expressing TRPV1 (CHO-rTRPV1) (Rattus norvegicus, UniProt O35433); experiment: Intracellular Ca2+ imaging, agonist and antagonist added simultaneously; type: cell-based
CHO cells expressing TRPV1 (CHO-rTRPV1), sequence (O35433 whole entry): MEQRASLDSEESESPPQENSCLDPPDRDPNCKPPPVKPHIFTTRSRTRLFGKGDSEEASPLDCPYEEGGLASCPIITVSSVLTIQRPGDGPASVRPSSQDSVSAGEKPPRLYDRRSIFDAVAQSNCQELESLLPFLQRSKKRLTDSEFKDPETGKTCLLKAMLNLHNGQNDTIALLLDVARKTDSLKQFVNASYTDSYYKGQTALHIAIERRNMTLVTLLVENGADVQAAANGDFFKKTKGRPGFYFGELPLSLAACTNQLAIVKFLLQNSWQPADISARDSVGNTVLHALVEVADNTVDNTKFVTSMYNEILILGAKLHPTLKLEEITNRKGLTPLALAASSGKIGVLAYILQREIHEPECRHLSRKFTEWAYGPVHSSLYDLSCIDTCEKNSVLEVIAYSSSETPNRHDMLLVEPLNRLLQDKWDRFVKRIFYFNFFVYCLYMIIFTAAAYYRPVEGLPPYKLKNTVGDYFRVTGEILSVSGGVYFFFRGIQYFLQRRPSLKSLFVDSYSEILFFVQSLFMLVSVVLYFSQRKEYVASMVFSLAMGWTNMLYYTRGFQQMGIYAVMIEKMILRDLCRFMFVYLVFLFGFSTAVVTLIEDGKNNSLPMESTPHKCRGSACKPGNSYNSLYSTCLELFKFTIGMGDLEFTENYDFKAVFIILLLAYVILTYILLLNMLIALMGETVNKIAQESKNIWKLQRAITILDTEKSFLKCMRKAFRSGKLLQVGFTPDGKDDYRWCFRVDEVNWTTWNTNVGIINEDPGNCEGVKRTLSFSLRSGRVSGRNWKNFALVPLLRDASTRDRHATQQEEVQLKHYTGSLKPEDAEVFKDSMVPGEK
Procedure: The stable CHO cell clone expressing rTRPV1 (Tet-Off) was the generous gift of James E. Krause and Daniel N. Cortwright (Neurogen Corp., Branford, Conn., USA). These cells were cultured in maintaining medium (HAM F-12 supplemented with 10% FBS (USA sourced, Atlanta biologicals, Lawrenceville, Ga., USA), 25 mM HEPES, pH 7.5, 250 μg/ml geneticin (F-12, HEPES, and geneticin are from Invitrogen, Carlsbad, Calif., USA) and 1 mg/L tetracycline (Calbiochem, La Jolla, Calif., USA).
CHO-rTRPV1 cells were seeded on 25 mm round glass coverslips in 35×10 mm tissue culture dishes in maintaining medium. After 24 hours, the medium was replaced with inducing medium (maintaining medium without geneticin and tetracycline, but containing 1 mM sodium butyrate) to induce TRPV1 expression. Experiments were performed approximately 24 hours after induction. For fura-2 AM (Invitrogen, Carlsbad, Calif., USA) loading, the cells were incubated in DPBS containing calcium and magnesium (Invitrogen, Carlsbad, Calif., USA), 0.5 mg/ml BSA (Sigma, St. Louis, Mo., USA), and 5 μM Fura-2 AM for 2 hours in the dark at 20° C. After 2 hours, the loaded cells were washed 2× with DPBS without calcium and magnesium and immersed in maintaining medium until the measurements. The measurements were carried out in DPBS containing calcium and magnesium, plus 0.5 mg/ml BSA. The fluorescence of individual cells treated simultaneously with a single dose of agonist and antagonist was measured with an InCyt Im2 fluorescence imaging system (Intracellular Imaging, Cincinnati, Ohio, USA). The cells within the selected field were illuminated alternately at 340 and 380 nm. Emitted light >510 nm was measured. To determine the approximate intracellular Ca^2+ concentrations, the system was calibrated using a fura-2 calibration kit (Invitrogen, Carlsbad, Calif., USA). Data were analyzed with the Incyt software and tabulated with Microsoft Excel spreadsheet and graphed with Origin 6.0 (OriginLab Corp., Northhampton, Mass., USA) software.
The TRPV1 agonist and antagonist were added simultaneously to fura-2 AM loaded CHO-rTRPV1 cells after 90 seconds from the beginning of the measurement (baseline) and monitored continuously for an additional 10 minutes. Inhibition values were compared to the maximally effective dose of capsaicin (300 nM) in the same experiment (see FIGS. 2A-2E) or to the indicated concentration of capsaicin (see FIGS. 3A-3E). Experiments were performed three times, each on different days with approximately 30-49 cells measured.

[2] = tested on: subjects; conditions: cited from earlier work

SMILES: C=C(C)[C@]12C[C@@H](C)[C@@]34O[C@](Cc5ccccc5)(O[C@@H]1[C@@H]3C=C(COC(=O)Cc1cc(I)c(O)c(OC)c1)C[C@]1(O)C(=O)C(C)=C[C@@H]41)O2 [Iodo-RTX]
- suitability of antagonist combined with capsaicin to give the desired properties ([1]; criterion: maximal response to agonist decreased by not more than 20%, response reduced by at least 80% later, FIGS. 2 and 3): give the desired properties
- suitability of antagonist combined with capsaicin to give the desired properties ([1]; criterion: maximal response to agonist decreased by not more than 20%, response reduced by at least 80% later, FIGS. 2 and 3, listed as IodoRTX): appropriate ratios of antagonist to agonist exist

SMILES: CC(C)(C)c1ccc(NC(=O)N2CCN(c3ncccc3Cl)CC2)cc1 [BCTC]
- suitability of antagonist combined with capsaicin to give the desired properties [1]: appropriate ratios of antagonist to agonist exist; also recorded: give the desired properties

SMILES: COc1cc(CNC(=O)CCCC/C=C/C(C)C)ccc1O [capsaicin, trans-8-methyl-N-vanillyl-6-nonenamide]
- intracellular calcium response to agonist ([1]; CHO cells expressing TRPV1, FIGS. 2A-2E): persistent elevation of intracellular calcium
- maximally effective dose ([1]; fura-2 AM loaded CHO-rTRPV1 cells): 300 nM
- proper inflammation ([2]; at 0.90% concentration, small population of individuals): does not achieve proper inflammation
- proper inflammation ([2]; at 1.45% concentration): all subjects achieve proper inflammation
- most potent level that can be delivered without potential hazards ([2]; concentration in spray): 1.45%

SMILES: Oc1cc2c(cc1O)CN(C(=S)NCCc1ccc(Cl)cc1)CCC2 [capsazepine]
- initial response to capsaicin as ratio of antagonist to agonist is raised ([1]; FIG. 2D and FIG. 2E): decrease in the initial response to capsaicin

SMILES: CC(C)(C)c1ccc(/C=C/C(=O)Nc2ccc3c(c2)OCCO3)cc1 [AMG9810]
- initial response to capsaicin as ratio of antagonist to agonist is raised [1]: decrease in the initial response to capsaicin
